Assay results reported in US20210106550A1, “COMPOSITIONS FOR PREVENTING OR TREATING COGNITIVE IMPAIRMENT-RELATED DISEASE COMPRISING MUMEFURAL” (KOREA INSTITUTE OF ORIENTAL MEDICINE, priority 2018, published 2021).

Legend:
dementia-mimic rats = assay: water maze test in dementia-mimic animal model; format: in vivo, Wistar rats
Description: (§1) Specifically, 12-week-old Wister rats (350 g to 380 g) were used for the experiments. After obtaining the experimental animals, appearance was visually inspected and then normal symptoms were observed during a 7-day acclimation period. Healthy animals were selected therefrom and assigned to groups by a random method according to body weight ranges, and then experiments were performed. During the acclimation and experiment, a constant breeding environment was maintained under the conditions of a temperature of 23±3° C., a relative humidity of 50±10%, a ventilation frequency of 12 times to 16 times per hour, a 12-hour light-dark cycle (light on at 7:00, light off at 19:00), and an intensity of illumination of 150 Lx to 300 Lx. Experiments were performed using sterilized instruments, and the rats were allowed free access to tap water and a solid feed (PMI nutrition, USA) for 24 hours.
(§2) In order to construct a vascular dementia-mimic animal model, chronic cerebral hypoperfusion was induced by bilateral common carotid artery occlusion (2VO, hereinafter referred to as “brain damage (BCCA0)”) (Wakita et al., 1994). The rats were anesthetized with 4% isoflurane, and the anesthesia was maintained by 1.5% isoflurane during the operation. The central neck was incised to expose the bilateral common carotid artery carefully so as not to cause damage to the vagal nerve. Ligation was performed twice with No. 3 silk, thereby constructing an animal model in which dementia was induced by brain damage.
(§3) After 21 days from the BCCA0 operation, the Wistar rats were orally administered with mumefural for 42 days. The rats were divided into 5 groups listed in Table 1 below, and controls were orally administered with saline. Different concentrations of mumefural were set in the oral administration as low concentration (20 mg/kg), medium concentration (40 mg/kg), and high concentration (80 mg/kg).
In order to investigate effects of mumefural on enhancing spatial memory in the dementia-mimic animal model, a water maze test was performed after administering mumefural in the same manner as in Example 1 above.
Specifically, a circular water tank (diameter: 180 cm, height: 58 cm) was filled with water at a temperature of 26±2° C. up to 2 cm above a marked platform, screen walls were set up on all sides of the water tank to prevent light from coming through, and a pigment was added thereto to make the water opaque. In addition, labels were attached to given positions (diameter: 12 cm, height: 33.5 cm) of the screen walls to give clues for the rats to search for the marked platform. Spatial memory training was performed […] for 8 days every morning (from 9:00 a.m.) once per day 8 times in total. Time taken for the rats to find the hidden platform and escape latency thereof were measured and regarded as markers of memory, and reduced time of every group was compared every day. Thereafter, a water maze test was performed after 8 days from the training. In this test, time taken for the rats to first find the hidden platform was measured and used as a marker of memory. That is, a shorter time is regarded as more improved recognition ability.

[1] = tested on: ChAT-positive cholinergic cells; assay: immunohistostaining of ChAT-positive cholinergic cells in basal forebrain; format: in vivo, Wistar rats; conditions: BCCAo rats, oral mumefural; compared with the negative control; FIGS. 4A, 4B
Description: (§4) Specifically, 12-week-old Wister rats (350 g to 380 g) were used for the experiments. After obtaining the experimental animals, appearance was visually inspected and then normal symptoms were observed during a 7-day acclimation period. Healthy animals were selected therefrom and assigned to groups by a random method according to body weight ranges, and then experiments were performed. […]
In order to investigate effects of mumefural on normalization of the cholinergic system in the dementia-mimic animal model, mumefural was administered in the same manner as in Example 1, and then the number of cholinergic neurons of the basal forebrain was measured.
Specifically, the brain was excised from each of the dementia-mimic rats after administration of mumefural was completed and sectioned into slices with a thickness of 40 μm. Subsequently, the cholinergic neurons of the basal forebrain were detected using choline acetyltransferase (ChAT) protein, which is known to be expressed in cholinergic neurons. The slices were stained by immunohistostaining using an anti-ChAT antibody as a primary antibody and a donkey anti-goat antibody as a secondary antibody, and anti-ChAT positive cells were detected.

[2] = tested on: ChAT, VAChT, and AChE proteins; assay: western blot of ChAT, VAChT, and AChE proteins in basal forebrain; format: in vivo; conditions: compared with the negative control; FIGS. 5A, 5B
Description: as §1, §2, §3

AChE [3] = assay: enzyme-linked immunosorbent assay of AChE activity in basal forebrain; format: in vivo; conditions: compared with the negative control; FIG. 6
Description: as §1
(§5) In order to construct a vascular dementia-mimic animal model, chronic cerebral hypoperfusion was induced by bilateral common carotid artery occlusion (2VO, hereinafter referred to as “brain damage (BCCA0)”) (Wakita et al., 1994). The rats were anesthetized with 4% isoflurane, and the anesthesia was maintained by 1.5% isoflurane during the operation. The central neck was incised to expose the bilateral common carotid artery carefully so as not to cause damage to the vagal nerve. […]

[4] = tested on: ChAT, VAChT, and AChE proteins; assay: western blot of ChAT, VAChT, and AChE proteins in hippocampus; format: in vivo; conditions: compared with the negative control; FIGS. 7A, 7B
Description: as §1, §2, §3

AChE [5] = assay: enzyme-linked immunosorbent assay of AChE activity in hippocampus; format: in vivo; conditions: compared with the negative control; FIG. 8
Description: as §1, §5

MBP = assay: western blot of MBP in hippocampus; format: in vivo, Wistar rats; conditions: compared with the negative control, FIG. 10
Description: as §1, §5

phospho-CAMKII protein = assay: western blot of phospho-CAMKII in hippocampus; format: in vivo, Wistar rats; conditions: compared with the negative control; FIGS. 13A, 13B
Description: as §4
In order to investigate effects of mumefural on normalization of damaged hippocampus in the dementia-mimic animal model, mumefural was administered in the same manner as in Example 1, and then expression levels of neurotransmitter secretion substances in the hippocampus were analyzed.
Specifically, the hippocampus was excised from each of the dementia-mimic rats after administration of mumefural was completed, and proteins were extracted therefrom. Expression levels of phospho-Ca^2+/calmodulin-dependent protein kinase II (phospho-CAMKII) and Ca^2+/calmodulin-dependent protein kinase II (CAMKII) proteins were analyzed by western blotting. β-Actin was used as a loading control.

[6] = tested on: BDNF and phospho-CREB proteins; assay: western blot of memory-related factors in hippocampus; format: in vivo, Wistar rats
Description: as §1, §2, §3
In order to investigate effects of mumefural on normalization of damaged hippocampus in the dementia-mimic animal model, mumefural was administered in the same manner as in Example 1, and then expression levels of memory-related factors in the hippocampus were analyzed.
Specifically, the hippocampus was excised from each of the dementia-mimic rats after administration of mumefural was completed, and proteins were extracted therefrom. Expression levels of brain-derived neurotrophic factor (BDNF), phospho-cAMP response element-binding protein (phospho-CREB), and cAMP response element-binding protein (CREB) were analyzed by western blotting. β-Actin was used as a loading control.

IL-1β and IL-18 = assay: enzyme immunoassay of inflammatory cytokines in hippocampus tissue; format: in vivo, Wistar rats; conditions: compared with the negative control, FIG. 20
Description: as §1, §5

[7] = 20 mg/kg, 40 mg/kg, and 80 mg/kg oral, relative to normal control
[8] = compared with the negative control, FIGS. 14A, 14B

O=Cc1ccc(COC(=O)CC(O)(CC(=O)O)C(=O)O)o1 (stereo not shown) [mumefural]
latency to find the hidden platform vs normal control (dementia-mimic rats; BCCAo rats, 20 mg/kg, 40 mg/kg, and 80 mg/kg oral, compared with normal control, FIG. 1): high latency similar to that of the normal control | time to first arrive at the hidden platform vs normal control (dementia-mimic rats; BCCAo rats, 40 mg/kg and 80 mg/kg oral, compared with normal control, FIG. 2): short time similar to that of the normal control | time to first arrive at the hidden platform (dementia-mimic rats; BCCAo rats, oral mumefural 42 days, compared to the negative control, FIG. 2): reduced | latency to find the hidden platform (escape latency) (dementia-mimic rats; BCCAo rats, oral mumefural 42 days, compared with the negative control (saline), FIG. 1): increased | average swim speeds (dementia-mimic rats; among the groups (20, 40, 80 mg/kg, controls), FIG. 3): no difference | number of cells positive for the anti-ChAT antibody in the basal forebrain [1]: significantly increased | expression level of AChE protein in the basal forebrain [2]: reduced | expression level of ChAT protein in the basal forebrain [2]: increased | expression level of VAChT protein in the basal forebrain [2]: increased | activity of AChE in the basal forebrain (AChE [3]): reduced | expression level of AChE protein in the hippocampus [4]: decreased | expression level of ChAT protein in the hippocampus [4]: increased | expression level of VAChT protein in the hippocampus [4]: increased | activity of AChE in the hippocampus (AChE [5]): decreased | density of the MBP in the hippocampus (MBP): increased | expression level of the phospho-CAMKII protein in hippocampus (phospho-CAMKII protein): significantly increased | expression level of BDNF protein vs normal control [6, 7]: higher expression levels than that of the normal control by about three times or more | expression level of phospho-CREB protein vs normal control [6, 7]: higher expression levels than that of the normal control by about three times or more | expression level of BDNF protein in hippocampus [6, 8]: significantly increased | expression level of phospho-CREB protein in hippocampus [6, 8]: significantly increased | level of IL-1β in hippocampus tissue (IL-1β and IL-18): significantly decreased | level of IL-18 in hippocampus tissue (IL-1β and IL-18): significantly decreased
